We go through one molecule from patent US20170239351A1, “Therapeutic Combinations of a BTK Inhibitor, a PI3K Inhibitor, a JAK-2 Inhibitor, a PD-1 Inhibitor, and/or a PD-L1 Inhibitor” (Acerta Pharma B.V., priority 2014, published 2017).

Entries after “also recorded” stand apart in the source; their conditions may differ.

A short description of data set [1]: Standard drug metabolism and pharmacokinetics (DMPK) assays. The format is in vitro ADME.
For the next data set, the target named is EGFR (Homo sapiens, UniProt P00533). Nature of the data set: EGF-induced EGFR phosphorylation in A431 cells (phosphoflow). The note with it: 10 μM (highest concentration tested).
Chain of EGFR (P00533 25-1210): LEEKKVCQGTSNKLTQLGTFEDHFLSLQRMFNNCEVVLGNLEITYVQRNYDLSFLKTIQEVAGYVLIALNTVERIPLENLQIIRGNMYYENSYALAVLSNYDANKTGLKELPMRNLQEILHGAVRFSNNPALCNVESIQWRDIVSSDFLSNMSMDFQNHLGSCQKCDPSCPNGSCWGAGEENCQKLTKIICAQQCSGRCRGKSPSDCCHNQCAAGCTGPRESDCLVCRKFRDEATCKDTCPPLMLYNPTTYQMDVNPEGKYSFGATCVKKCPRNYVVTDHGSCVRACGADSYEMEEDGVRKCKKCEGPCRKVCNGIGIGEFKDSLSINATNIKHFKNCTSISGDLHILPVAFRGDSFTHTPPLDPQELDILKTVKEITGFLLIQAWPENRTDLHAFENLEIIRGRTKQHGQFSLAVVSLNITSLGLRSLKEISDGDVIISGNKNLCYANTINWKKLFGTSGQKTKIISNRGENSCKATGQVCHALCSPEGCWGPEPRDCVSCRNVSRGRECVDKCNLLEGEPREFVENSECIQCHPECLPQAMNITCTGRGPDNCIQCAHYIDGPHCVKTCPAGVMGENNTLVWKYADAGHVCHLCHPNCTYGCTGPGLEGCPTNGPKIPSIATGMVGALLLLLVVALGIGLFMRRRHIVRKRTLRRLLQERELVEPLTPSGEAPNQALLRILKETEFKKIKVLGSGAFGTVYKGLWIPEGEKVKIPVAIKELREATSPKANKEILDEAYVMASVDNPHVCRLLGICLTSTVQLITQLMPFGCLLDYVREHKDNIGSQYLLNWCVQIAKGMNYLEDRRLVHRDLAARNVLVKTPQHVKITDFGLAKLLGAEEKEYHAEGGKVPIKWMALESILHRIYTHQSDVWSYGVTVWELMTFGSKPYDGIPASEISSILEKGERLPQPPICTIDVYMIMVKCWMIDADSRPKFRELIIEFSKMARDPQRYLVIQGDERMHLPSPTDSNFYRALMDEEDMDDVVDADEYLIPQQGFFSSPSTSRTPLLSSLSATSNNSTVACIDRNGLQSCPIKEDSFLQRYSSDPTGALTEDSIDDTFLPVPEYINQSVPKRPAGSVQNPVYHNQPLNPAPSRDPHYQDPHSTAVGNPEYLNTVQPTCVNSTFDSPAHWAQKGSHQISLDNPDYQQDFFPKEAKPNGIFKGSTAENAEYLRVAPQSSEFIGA
In the next data set the test system is CD8^+ T cell. Kind of data set: CD8+ T cell viability. It counts as cell-based.
Data set [2] has as its system CD8^+ T cell function. Kind of data set: IFN-γ level measurements for CD8+ T cell function. It counts as cell-based. The note with it: relative to vehicle.
The nature of data set [3]: Cardiovascular function study in awake telemeterized animals. To be noted: single doses through 30 mg/kg.
Data set [4] concerns CD8^+ T cell function. Kind of data set: Cytotoxicity assay for CD8+ T cell function. It counts as cell-based. To be noted: relative to vehicle.
A further data set deals with pancreatic cancer. Kind of data set: KPC pancreatic cancer model (spontaneously appearing tumors). It counts as in vivo, KPC mice. The note with it: 15 mg/kg BID oral. How it is done:
The KPC mouse model recapitulates many of the molecular, histopathologic, and clinical features of human disease (Westphalen and Olive, Cancer J. 2012, 18, 502-510). Combination therapy with gemcitabine was also evaluated in this model. Mice were enrolled after identification of spontaneously appearing tumors in the pancreas that were ≧100 mm^3 (as assessed by high-resolution ultrasonography).

For another data set, the system named is NSCLC lung tumors. Kind of data set: Genetic tumor model of NSCLC (KrasLA2). It counts as in vivo, mice. To be noted: 15 mg/kg. An excerpt: The model is designed to have sporadic expression in single cells of G12D mutant Kras off its own promoter triggered by spontaneous intrachromosomal recombination. Johnson, et al. Nature 2001, 410, 1111-16. While the mutant Kras protein is expressed in a few cells in all tissues, tumor development is seen only in the lung at high penetrance.

The next data set deals with CD4^+ T cells. Kind of data set: Th17 and Treg development from CD4+ T cells. The format is cell-based. As to the method:
Enriched CD4^+ T cells are plated on 24-well culture dishes that have been precoated 2 hr with 250 μL anti-TCRβ (0.5 μg/mL) plus anti-CD28 (5 μg/mL) at 37° C. in PBS. The cells are then supplemented with media containing BTK inhibitors along with the skewing cytokines as indicated in the following. The Th17 and Treg cultures are grown for 4 days before analysis. The cells are maintained for an additional 3 days with skewing cytokines (Th17; 20 ng/mL IL-6, 0.5 ng/mL TGF-β, 5 μg/mL IL-4, 5 μg/mL IFN-γ and Treg; 0.5 ng/mL TGF-β, 5 μg/mL IL-4, 5 μg/mL IFN-γ) and are supplemented with IL2 as a growth factor.

Data set [5] concerns KPC derived mouse pancreatic cancer cells. Nature of the data set: Orthotopic pancreatic cancer model (KPC-derived cells). The format is in vivo, C57BL/6 mice. To be noted: 15 mg/kg oral of each drug. How it is done: Orthotopic pancreatic cancer models in mice are clinically relevant, benefit from tissue site-specific pathology, and allow for study of metastasis. Qiu and Su, Methods Mol. Biol. 2013, 980, 215-223. A cell line derived from KrasG12D; Trp53R172H; Pdx1-Cre (KPC) mice was orthotopically implanted into the head of the pancreas after 35 passages. Based on the mice background from where the cell lines were generated, 1×10^6 cells were injected in C57BL/6 mice. Throughout the experiment, animals were provided with food and water ad libitum and subjected to a 12-h dark/light cycle. Animal studies were performed in accordance with the U.S. Public Health Service “Guidelines for the Care and Use of Laboratory Animals” (IACUC). After euthanization, pancreatic tumors were dissected out, weighed and single cell suspensions were prepared for flow cytometry analysis.
Results of the experiments are shown in FIG. 110, which illustrates tumor growth suppression in the orthotopic pancreatic cancer model. The statistical p-value (presumption against null hypothesis) is shown for each tested single active pharmaceutical ingredient and for the combination against the vehicle.
In this study, KrasG12D;Trp53R172H; Pdx1-Cre (KPC) derived mouse pancreatic cancer cells (10,000 cells) were injected into the pancreases of 24 female mice. After one week of expansion, drug treatment was started in mice developing pancreatic tumors.
Single cell suspensions from tumor samples were prepared as follows. Mouse tumor tissue was collected and stored in PBS/0.1% soybean trypsin inhibitor prior to enzymatic dissociation. […] Following surface staining, samples were acquired on a BD Fortessa and analyzed using FlowJo (Treestar) software.

Data set [6] concerns regulatory T cell (Treg) development. Nature of the data set: Regulatory T cell (Treg) development. The format is cell-based.
Another data set has as its system KPC pancreatic cancer. Kind of data set: KPC pancreatic cancer model. To be noted: in vivo.
Data set [7] is described as follows: Functional observation battery (GLP safety pharmacology). The note with it: doses through 300 mg/kg.
Data set [8] can be described thus: Glutathione binding and depletion in vitro. The format is in vitro ADME.
The next data set relates to Raji cells. Nature of the data set: Rituximab ADCC assay (51Cr release), healthy donor NK cells. It counts as cell-based, human. The note with it: 1 μM.

Take `CC#CC(=O)N1CCC[C@H]1c1nc(-c2ccc(C(=O)Nc3ccccn3)cc2)c2c(N)nccn12` [Formula (XVIII), (S)-4-(8-amino-3-(1-(but-2-ynoyl)pyrrolidin-2-yl)imidazo[1,5-a]pyrazin-1-yl)-N-(pyridin-2-yl)benzamide]: the “solubility, plasma protein binding and oral bioavailability versus ibrutinib” value in data set [1] is “greater solubility, less plasma protein binding, and better oral bioavailability than ibrutinib”. Moreover, the “inhibition of EGFR phosphorylation” value at EGFR is listed as “no inhibition; also recorded: does not inhibit EGFR”. The “effect on CD8+ T cell viability” value in the data set on CD8^+ T cell is listed as “no effect on CD8^+ T cell viability”. The “CD8+ T cell function as measured by IFN-γ level” value in the data set on CD8^+ T cell function [2] is “no effect on CD8^+ T cell function”. Also, the “body temperature, cardiovascular, or ECG (including QT interval) parameters” value in data set [3] is given as “no meaningful changes”. The “CD8+ T cell function as measured by % cytotoxicity” value in the data set with CD8^+ T cell function [4] was “no effect on CD8^+ T cell function”. Also, in the data set on pancreatic cancer, the “CD8 cells in tumor tissues” value is listed as “significant increase”; the “immunosuppressive TAMs, MDSCs and Tregs in tumor tissues” value is recorded as “significantly reduced”; the “survival at day 14” value was 6/6. In the data set on NSCLC lung tumors, the number of tumors entry was “fewer overall tumors” and the “tumor volumes versus vehicle” value is “significant decrease in tumor volumes”. In addition, in the data set with CD4^+ T cells, the “effect on Th17 and Treg development” value was “no adverse effects on Th17 and Treg development”. In addition, in data set [5], the “immunosuppressive tumor associated myeloid cells and Tregs” value is “reduce immunosuppressive tumor associated myeloid cells and Tregs”; the “tumor volume versus vehicle” value was “statistically significant reductions in tumor volume”. Further, in [6], the “effect on Treg development” value is “no effect on regulatory T cell (Treg) development”. For the same molecule, in the data set with KPC pancreatic cancer, the “immunosuppressive MDSCs (Gr1+Ly6CHi) in tumor tissues” value was “significantly reduced”, the “immunosuppressive TAMs (CD11b+Ly6ClowF4/80+Csf1r+) in tumor tissues” value is “significantly reduced” and the “immunosuppressive Tregs (CD4+CD25+FoxP3+) in tumor tissues” value is “significantly reduced”. Further, the “neurobehavioral effects or body temperature” value in data set [7] is on record as “no adverse effects”. In addition, the “glutathione binding and depletion” value in data set [8] is listed as “binds to glutathione but does not deplete glutathione”. For the same molecule, the “effect on rituximab-mediated ADCC” value with Raji cells is “not inhibited”.
